Measured values reported in US20230331673A1, “COMPOSITION OF COMPOUNDS THAT MODULATE CELL METABOLISM AND METHODS OF USE” (CRESCENTA BIOSCIENCES, priority 2020, published 2023).

Assays:
[1] = target: T1, His6 tagged human recombinant FABP4 (Homo sapiens, UniProt P15090); test: FABP4 Tb TR-FRET assay: displacement of BODIPY FL C12 fatty acid from His6-FABP4; conditions: triplicates, inhibition of BODIPY FL C12 binding
T1 construct: purchased Cayman Chemicals 10009549
Description: Activity of compounds with FABP4 was profiled using a Terbium (Tb) based time resolved fluorescence energy transfer (TR-FRET) assay. The assay measures the compound mediated displacement of the fluorescent fatty acid BODIPY FL C12 (Thermo Fisher; catalog number D3822) from His6 tagged human recombinant FABP4 (His6-FABP4; Cayman Chemicals, catalog number 10009549) via recording the energy transfer from TB donor molecule on anti-His6-tag antibody to acceptor BODIPY moiety. Briefly, compounds were prepared at a concentration of 0.362 mM and 0.0362 mM, and BODIPY FL C12 was prepared at 4.2 μM, in DMSO. 1.2 μL of each compound or DMSO (vehicle control) and 1.2 μL of BODIPY FL C12 were added into the wells of a 384-well black polypropylene plate. His6-FABP4 and Tb anti-His6 antibody were prepared in the assay buffer (25 mM Tris/HCl, pH 7.4, 0.4 mg/ml γ-globulins, 0.010% NP-40, 1 mM DTT) at a concentration of 83 nM and 49.6 nM, respectively. The protein and antibody solutions were then mixed at a ratio of 34:7 (v/v) and incubated on ice for 30 minutes. The assay was initiated by adding 41 μL of the resulting protein/antibody solution into the wells containing the compounds and BODIPY FL C12. The plate was centrifuged and incubated at room temperature for 10 min. The TR-FRET signals were recorded using an EnVision Multilabel plate reader (PerkinElmer; TB excitation 320 nm, BODIPY FL C12 emission 520 nm; TB emission 615 nm). Relative fluorescence ratio (520 nm*10,000/615 nm) were used to calculate the compound mediated inhibition of BODIPY C12 FL fatty acid binding to FABP4. […] Glucose consumption and FABP4 inhibition is shown below in Table 3 below.

[2] = tested on: differentiated 3T3-L1 mouse adipocyte cells; test: Adipocyte glucose consumption in differentiated 3T3-L1 mouse adipocyte cells (loss of glucose from medium, colorimetric); type: cell-based; conditions: compound 10 μM, 22 to 24 hours, differentiated 3T3-L1 adipocytes, compound/DMSO, read-out: Glucose consumption (fold change) Mean
Method in brief: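 3T3-L1 cells were differentiated with rosiglitazone, dexamethasone, IBMX and insulin, then used on day 11 or 12. Medium glucose was measured colorimetrically, and consumption was given as mean fold change versus DMSO ± SD.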

T1 sequence (P15090 whole entry): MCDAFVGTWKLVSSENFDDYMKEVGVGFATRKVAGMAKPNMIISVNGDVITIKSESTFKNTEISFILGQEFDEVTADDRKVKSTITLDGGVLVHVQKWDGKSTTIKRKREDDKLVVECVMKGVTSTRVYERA

Structure (SMILES)	inhibition at 1 µM ([1]; 1 μM compound)	fold induction at 10 µM [2]	also measured
CCCCCCC1CCCc2c(n(Cc3ccc4ocnc4c3)c3c(C(=O)O)cccc23)C1 (stereo not drawn) [5-[(1,3-benzoxazol-5-yl)methyl]-7-hexyl-5H,6H,7H,8H,9H,10H-cyclohepta[b]indole-4-carboxylic acid]	88%	0.87	
CCCCCCC1CCCc2c(n(Cc3ccccc3C#N)c3c(C(=O)O)cccc23)C1 (stereo not drawn) [5-[(2-cyanophenyl)methyl]-7-hexyl-5H,6H,7H,8H,9H,10H-cyclohepta[b]indole-4-carboxylic acid]	88.5%	0.91	
CCCCCCC1CCCc2c(n(Cc3cc(C#N)cs3)c3c(C(=O)O)cccc23)C1 (stereo not drawn) [5-[(4-cyanothiophen-2-yl)methyl]-7-hexyl-5H,6H,7H,8H,9H,10H-cyclohepta[b]indole-4-carboxylic acid]	83.3%		inhibition at 10 µM ([1]; 10 μM compound): 89.4%
CCCCCCC1CCCc2c(n(Cc3cccc(OC)c3)c3c(C(=O)O)cccc23)C1 (stereo not drawn) [7-hexyl-5-[(3-methoxyphenyl)methyl]-5H,6H,7H,8H,9H,10H-cyclohepta[b]indole-4-carboxylic acid]	93.2%	1.13	
CCCCCCC1CCCc2c(n(Cc3cccc(C(F)(F)F)n3)c3c(C(=O)O)cccc23)C1 (stereo not drawn) [7-hexyl-5-{[6-(trifluoromethyl)pyridin-2-yl]methyl}-5H,6H,7H,8H,9H,10H-cyclohepta[b]indole-4-carboxylic acid]	79.7%		
CCCCCCC1CCc2c(n(Cc3cccc(C(=O)O)c3)c3c(C(=O)O)cccc23)C1 (stereo not drawn) [9-[(3-carboxyphenyl)methyl]-2-hexyl-2,3,4,9-tetrahydro-1H-carbazole-8-carboxylic acid]		1.01	FABP4 inhibition (%) at 1 μM Mean ([1]; 1 μM compound): 42.40%; FABP4 inhibition (%) at 10 μM Mean ([1]; 10 μM compound): 80.24%
N#Cc1cccc(Cn2c3c(c4cccc(C(=O)O)c42)CCC(CCc2ccccc2)C3)c1 (stereo not drawn) [9-[(3-cyanophenyl)methyl]-2-(2-phenylethyl)-2,3,4,9-tetrahydro-1H-carbazole-8-carboxylic acid]	92.7%		
CCCCC1CCCCc2c1c1cccc(C(=O)O)c1n2Cc1cccc(C(N)=O)c1 (stereo not drawn) [10-butyl-5-[(3-carbamoylphenyl)methyl]-5H,6H,7H,8H,9H,10H-cyclohepta[b]indole-4-carboxylic acid]		1.14	
CCCCC1CCCCc2c1c1cccc(C(=O)O)c1n2Cc1cccc(C#N)c1 (stereo not drawn) [10-butyl-5-[(3-cyanophenyl)methyl]-5H,6H,7H,8H,9H,10H-cyclohepta[b]indole-4-carboxylic acid]		1.24	
